Measured values from ChEMBL document CHEMBL4507262, “Data for DCP probe A-1596586” (2021).

What was measured:
[1] = biological target: Serine/threonine-protein kinase TNNI3K (Homo sapiens) (UniProt Q59H18); details: Compound concentration 1000.0 nM
[2] = biological target: Phosphatidylinositol 4-phosphate 3-kinase C2 domain-containing subunit beta (Homo sapiens) (UniProt O00750); details: Compound concentration 1000.0 nM
[3] = biological target: MAO-A (amine oxidase [flavin-containing] A) (Rattus norvegicus, UniProt P21396); assay: MAO-A Eurofins-Cerep binding assay; design: incubation time 60 min, incubation temperature 37°C, ligand concentration 10 nM; details: rat cerebral cortex, probe [3H]Ro 41-1049 (10 nM), compound concentration 10 uM, read-out: % Inhibition of Control Specific Binding (Mean n=2)
[4] = biological target: Serine/threonine-protein kinase N2 (Homo sapiens) (UniProt Q16513); details: Compound concentration 1000.0 nM
[5] = biological target: Mu-type opioid receptor (Homo sapiens) (UniProt P35372); assay: mu (MOP) (h) Eurofins-Cerep binding assay; design: ligand concentration 0.5 nM; details: filed as agonist, Compound concentration 10.0 uM
[6] = biological target: Tyrosine-protein kinase ABL2 (Homo sapiens) (UniProt P42684); details: Compound concentration 1000.0 nM
[7] = system: ALK tyrosine kinase receptor (Homo sapiens), Q9UM73 [C1156Y]; details: Compound concentration 1000.0 nM
[8] = biological target: Ephrin type-B receptor 6 (Homo sapiens) (UniProt O15197); details: Compound concentration 1000.0 nM
[9] = biological target: LIM domain kinase 2 (Homo sapiens) (UniProt P53671); details: Compound concentration 1000.0 nM
[10] = biological target: 5-hydroxytryptamine receptor 2B (Homo sapiens) (UniProt P41595); assay: 5-HT2B (h) Eurofins-Cerep binding assay; design: ligand concentration 0.2 nM; details: filed as agonist, Compound concentration 10.0 uM
[11] = biological target: Protein kinase C epsilon type (Homo sapiens) (UniProt Q02156); details: Compound concentration 1000.0 nM
[12] = biological target: RAF proto-oncogene serine/threonine-protein kinase (Homo sapiens) (UniProt P04049); details: Compound concentration 1000.0 nM
[13] = biological target: Protein-tyrosine kinase 6 (Homo sapiens) (UniProt Q13882); details: Compound concentration 1000.0 nM
[14] = biological target: Serine/threonine-protein kinase Nek5 (Homo sapiens) (UniProt Q6P3R8); details: Compound concentration 1000.0 nM
[15] = biological target: SNF-related serine/threonine-protein kinase (Homo sapiens) (UniProt Q9NRH2); details: Compound concentration 1000.0 nM
[16] = biological target: Myosin light chain kinase (Homo sapiens) (UniProt Q32MK0); details: Compound concentration 1000.0 nM
[17] = biological target: Mitogen-activated protein kinase kinase kinase kinase 4 (Homo sapiens) (UniProt O95819); details: Compound concentration 1000.0 nM
[18] = biological target: Tyrosine-protein kinase Srms (Homo sapiens) (UniProt Q9H3Y6); details: Compound concentration 1000.0 nM
[19] = biological target: GABA-A receptor; anion channel (Rattus norvegicus) (UniProt O09028+P15431+P18506+P18508+P19969+P20236+P23574+P23576+P28471+P28473+P30191+P62813+P63079+P63138+Q91ZM7+Q9ES14); assay: BZD (central) Eurofins-Cerep binding assay; assay type: protein-complex assay; design: ligand concentration 0.4 nM; details: filed as agonist, Compound concentration 10.0 uM
[20] = system: Proto-oncogene tyrosine-protein kinase receptor Ret (Homo sapiens), P07949 [V804L]; details: Compound concentration 1000.0 nM
[21] = system: Tyrosine-protein kinase ABL1 (Homo sapiens), P00519 [Q252H]; details: Compound concentration 1000.0 nM
[22] = biological target: Adenosine receptor A2a (Homo sapiens) (UniProt P29274); assay: A2A (h) Eurofins-Cerep binding assay; design: ligand concentration 6 nM; details: filed as agonist, Compound concentration 10.0 uM
[23] = biological target: Calcium/calmodulin-dependent protein kinase type II subunit alpha (Homo sapiens) (UniProt Q9UQM7); details: Compound concentration 1000.0 nM
[24] = biological target: Serine/threonine-protein kinase SIK2 (Homo sapiens) (UniProt Q9H0K1); details: Compound concentration 1000.0 nM
[25] = biological target: Serine/threonine-protein kinase 36 (Homo sapiens) (UniProt Q9NRP7); details: Compound concentration 1000.0 nM
[26] = biological target: Mitogen-activated protein kinase kinase kinase 1 (Homo sapiens) (UniProt Q13233); details: Compound concentration 1000.0 nM
[27] = biological target: Platelet-derived growth factor receptor alpha (Homo sapiens) (UniProt P16234); details: Compound concentration 1000.0 nM
[28] = biological target: T1, Alpha-2B adrenergic receptor (Homo sapiens) (UniProt P18089); details: Compound concentration 10.0 uM
T1 sequence (whole entry): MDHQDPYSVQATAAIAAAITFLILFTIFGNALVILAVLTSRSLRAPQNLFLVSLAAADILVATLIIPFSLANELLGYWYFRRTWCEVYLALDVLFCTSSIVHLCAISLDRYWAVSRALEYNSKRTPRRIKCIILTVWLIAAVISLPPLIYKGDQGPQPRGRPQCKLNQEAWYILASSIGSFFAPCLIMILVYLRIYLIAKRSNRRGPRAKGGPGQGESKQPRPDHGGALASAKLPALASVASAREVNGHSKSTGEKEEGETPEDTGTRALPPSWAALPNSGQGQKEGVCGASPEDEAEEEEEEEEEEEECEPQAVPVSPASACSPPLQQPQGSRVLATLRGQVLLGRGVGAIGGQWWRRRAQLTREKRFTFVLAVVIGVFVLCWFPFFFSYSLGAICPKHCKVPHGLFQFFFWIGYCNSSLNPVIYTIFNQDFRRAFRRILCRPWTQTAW

[29] = biological target: Mitogen-activated protein kinase kinase kinase 9 (Homo sapiens) (UniProt P80192); details: Compound concentration 1000.0 nM
[30] = biological target: Serine/threonine-protein kinase Chk1 (Homo sapiens) (UniProt O14757); details: Compound concentration 1000.0 nM
[31] = biological target: Serine/threonine-protein kinase 32C (Homo sapiens) (UniProt Q86UX6); details: Compound concentration 1000.0 nM
[32] = biological target: Dual specificity tyrosine-phosphorylation-regulated kinase 1A (Homo sapiens) (UniProt Q13627); details: Compound concentration 1000.0 nM
[33] = system: Tyrosine-protein kinase ABL1 (Homo sapiens), P00519 [T315I]; details: Compound concentration 1000.0 nM
[34] = biological target: Mitogen-activated protein kinase 4 (Homo sapiens) (UniProt P31152); details: Compound concentration 1000.0 nM
[35] = biological target: cAMP-dependent protein kinase catalytic subunit alpha (Homo sapiens) (UniProt P17612); details: Compound concentration 1000.0 nM
[36] = biological target: Dual specificity mitogen-activated protein kinase kinase 6 (Homo sapiens) (UniProt P52564); details: Compound concentration 1000.0 nM
[37] = biological target: Tyrosine-protein kinase receptor UFO (Homo sapiens) (UniProt P30530); details: Compound concentration 1000.0 nM

Chain of SNF-related serine/threonine-protein kinase (Homo sapiens) (Q9NRH2 whole entry): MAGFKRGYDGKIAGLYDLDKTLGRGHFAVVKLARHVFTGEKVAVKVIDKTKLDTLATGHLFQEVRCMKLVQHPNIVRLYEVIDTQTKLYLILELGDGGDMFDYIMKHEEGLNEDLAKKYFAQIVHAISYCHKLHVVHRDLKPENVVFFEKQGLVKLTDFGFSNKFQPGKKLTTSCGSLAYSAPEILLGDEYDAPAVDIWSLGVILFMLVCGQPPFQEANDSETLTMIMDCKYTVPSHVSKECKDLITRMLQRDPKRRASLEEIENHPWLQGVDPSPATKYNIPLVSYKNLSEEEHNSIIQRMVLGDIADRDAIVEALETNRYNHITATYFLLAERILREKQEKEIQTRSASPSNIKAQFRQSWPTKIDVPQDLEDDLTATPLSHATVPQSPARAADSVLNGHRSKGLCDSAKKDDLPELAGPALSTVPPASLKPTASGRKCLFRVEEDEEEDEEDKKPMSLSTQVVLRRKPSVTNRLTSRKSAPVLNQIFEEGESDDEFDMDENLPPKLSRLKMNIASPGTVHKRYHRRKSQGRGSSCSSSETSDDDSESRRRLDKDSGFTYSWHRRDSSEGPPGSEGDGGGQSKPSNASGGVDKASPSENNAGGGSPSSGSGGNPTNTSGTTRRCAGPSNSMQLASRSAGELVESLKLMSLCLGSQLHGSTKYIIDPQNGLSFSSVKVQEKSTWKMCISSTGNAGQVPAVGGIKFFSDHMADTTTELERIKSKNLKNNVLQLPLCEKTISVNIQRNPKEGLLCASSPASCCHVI
Chain of Protein kinase C epsilon type (Homo sapiens) (Q02156 whole entry): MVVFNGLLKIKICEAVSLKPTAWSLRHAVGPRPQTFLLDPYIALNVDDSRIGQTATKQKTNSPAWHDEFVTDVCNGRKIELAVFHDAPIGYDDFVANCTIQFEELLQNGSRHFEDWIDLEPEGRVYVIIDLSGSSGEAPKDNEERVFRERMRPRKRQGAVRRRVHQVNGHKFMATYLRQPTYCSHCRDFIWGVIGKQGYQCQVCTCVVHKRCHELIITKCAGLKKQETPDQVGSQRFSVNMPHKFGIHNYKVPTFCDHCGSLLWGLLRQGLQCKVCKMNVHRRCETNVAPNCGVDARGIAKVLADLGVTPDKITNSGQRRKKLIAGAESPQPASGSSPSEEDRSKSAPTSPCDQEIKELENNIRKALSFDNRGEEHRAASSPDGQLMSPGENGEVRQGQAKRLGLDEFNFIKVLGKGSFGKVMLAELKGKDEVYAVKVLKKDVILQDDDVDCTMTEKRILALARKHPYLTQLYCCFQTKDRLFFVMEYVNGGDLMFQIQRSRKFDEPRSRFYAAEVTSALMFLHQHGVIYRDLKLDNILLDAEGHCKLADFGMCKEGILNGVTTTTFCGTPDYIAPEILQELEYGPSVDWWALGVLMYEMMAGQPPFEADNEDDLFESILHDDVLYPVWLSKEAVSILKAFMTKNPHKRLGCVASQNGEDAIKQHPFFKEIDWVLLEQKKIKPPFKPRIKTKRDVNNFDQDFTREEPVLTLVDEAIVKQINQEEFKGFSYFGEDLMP
Chain of Serine/threonine-protein kinase Chk1 (Homo sapiens) (O14757 whole entry): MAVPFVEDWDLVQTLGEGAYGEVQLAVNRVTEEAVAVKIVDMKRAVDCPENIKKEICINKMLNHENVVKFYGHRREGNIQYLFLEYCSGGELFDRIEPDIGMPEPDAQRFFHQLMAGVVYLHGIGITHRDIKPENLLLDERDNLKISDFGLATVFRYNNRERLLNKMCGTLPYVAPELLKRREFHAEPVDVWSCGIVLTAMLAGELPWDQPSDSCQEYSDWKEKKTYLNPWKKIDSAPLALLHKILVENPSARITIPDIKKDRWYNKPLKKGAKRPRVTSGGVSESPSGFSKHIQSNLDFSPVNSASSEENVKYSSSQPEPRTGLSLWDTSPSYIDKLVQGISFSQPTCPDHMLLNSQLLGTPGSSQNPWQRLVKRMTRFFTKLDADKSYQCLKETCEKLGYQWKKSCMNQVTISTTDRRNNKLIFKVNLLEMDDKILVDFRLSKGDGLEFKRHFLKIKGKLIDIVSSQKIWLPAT
Chain of Platelet-derived growth factor receptor alpha (Homo sapiens) (P16234 whole entry): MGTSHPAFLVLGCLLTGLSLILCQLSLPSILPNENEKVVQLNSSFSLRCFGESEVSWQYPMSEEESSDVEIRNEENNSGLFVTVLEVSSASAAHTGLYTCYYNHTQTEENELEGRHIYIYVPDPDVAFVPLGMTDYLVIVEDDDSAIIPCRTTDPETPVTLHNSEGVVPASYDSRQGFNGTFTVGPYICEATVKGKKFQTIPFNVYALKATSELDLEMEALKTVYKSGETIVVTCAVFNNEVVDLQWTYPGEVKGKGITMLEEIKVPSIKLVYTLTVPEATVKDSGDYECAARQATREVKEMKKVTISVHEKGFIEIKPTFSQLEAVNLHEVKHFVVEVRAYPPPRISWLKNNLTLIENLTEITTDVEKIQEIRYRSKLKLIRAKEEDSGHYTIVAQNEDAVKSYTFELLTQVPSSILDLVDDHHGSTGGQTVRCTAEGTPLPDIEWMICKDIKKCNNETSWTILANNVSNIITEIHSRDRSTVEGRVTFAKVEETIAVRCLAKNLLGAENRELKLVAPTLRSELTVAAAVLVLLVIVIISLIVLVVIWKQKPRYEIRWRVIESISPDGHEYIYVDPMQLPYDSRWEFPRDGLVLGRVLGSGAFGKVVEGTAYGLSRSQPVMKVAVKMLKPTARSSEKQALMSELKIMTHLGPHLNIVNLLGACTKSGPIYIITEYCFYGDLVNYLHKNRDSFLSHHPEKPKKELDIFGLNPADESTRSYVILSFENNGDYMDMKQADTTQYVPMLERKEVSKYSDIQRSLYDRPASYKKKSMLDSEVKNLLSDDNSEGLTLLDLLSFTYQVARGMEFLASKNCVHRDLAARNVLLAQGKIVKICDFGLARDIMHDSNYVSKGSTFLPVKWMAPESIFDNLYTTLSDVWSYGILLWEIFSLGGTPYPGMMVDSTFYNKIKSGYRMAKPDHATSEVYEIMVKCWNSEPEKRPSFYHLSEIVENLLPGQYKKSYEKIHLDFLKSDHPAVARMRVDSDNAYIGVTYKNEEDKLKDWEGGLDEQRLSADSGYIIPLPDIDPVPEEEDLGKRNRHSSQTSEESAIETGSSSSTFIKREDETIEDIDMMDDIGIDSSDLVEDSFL
Chain of Calcium/calmodulin-dependent protein kinase type II subunit alpha (Homo sapiens) (Q9UQM7 whole entry): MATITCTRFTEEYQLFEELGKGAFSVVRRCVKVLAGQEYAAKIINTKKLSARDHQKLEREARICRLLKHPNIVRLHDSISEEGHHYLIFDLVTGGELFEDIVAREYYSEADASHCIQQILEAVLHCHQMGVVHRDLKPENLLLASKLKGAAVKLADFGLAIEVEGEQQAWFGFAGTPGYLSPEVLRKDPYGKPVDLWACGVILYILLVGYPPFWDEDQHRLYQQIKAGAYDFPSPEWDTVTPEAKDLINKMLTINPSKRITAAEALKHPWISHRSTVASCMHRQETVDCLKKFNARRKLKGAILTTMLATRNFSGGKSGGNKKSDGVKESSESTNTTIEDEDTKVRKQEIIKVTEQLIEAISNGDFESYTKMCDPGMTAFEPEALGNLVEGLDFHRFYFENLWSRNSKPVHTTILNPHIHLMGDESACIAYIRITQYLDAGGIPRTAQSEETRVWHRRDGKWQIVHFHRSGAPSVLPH
Chain of Tyrosine-protein kinase ABL2 (Homo sapiens) (P42684 whole entry): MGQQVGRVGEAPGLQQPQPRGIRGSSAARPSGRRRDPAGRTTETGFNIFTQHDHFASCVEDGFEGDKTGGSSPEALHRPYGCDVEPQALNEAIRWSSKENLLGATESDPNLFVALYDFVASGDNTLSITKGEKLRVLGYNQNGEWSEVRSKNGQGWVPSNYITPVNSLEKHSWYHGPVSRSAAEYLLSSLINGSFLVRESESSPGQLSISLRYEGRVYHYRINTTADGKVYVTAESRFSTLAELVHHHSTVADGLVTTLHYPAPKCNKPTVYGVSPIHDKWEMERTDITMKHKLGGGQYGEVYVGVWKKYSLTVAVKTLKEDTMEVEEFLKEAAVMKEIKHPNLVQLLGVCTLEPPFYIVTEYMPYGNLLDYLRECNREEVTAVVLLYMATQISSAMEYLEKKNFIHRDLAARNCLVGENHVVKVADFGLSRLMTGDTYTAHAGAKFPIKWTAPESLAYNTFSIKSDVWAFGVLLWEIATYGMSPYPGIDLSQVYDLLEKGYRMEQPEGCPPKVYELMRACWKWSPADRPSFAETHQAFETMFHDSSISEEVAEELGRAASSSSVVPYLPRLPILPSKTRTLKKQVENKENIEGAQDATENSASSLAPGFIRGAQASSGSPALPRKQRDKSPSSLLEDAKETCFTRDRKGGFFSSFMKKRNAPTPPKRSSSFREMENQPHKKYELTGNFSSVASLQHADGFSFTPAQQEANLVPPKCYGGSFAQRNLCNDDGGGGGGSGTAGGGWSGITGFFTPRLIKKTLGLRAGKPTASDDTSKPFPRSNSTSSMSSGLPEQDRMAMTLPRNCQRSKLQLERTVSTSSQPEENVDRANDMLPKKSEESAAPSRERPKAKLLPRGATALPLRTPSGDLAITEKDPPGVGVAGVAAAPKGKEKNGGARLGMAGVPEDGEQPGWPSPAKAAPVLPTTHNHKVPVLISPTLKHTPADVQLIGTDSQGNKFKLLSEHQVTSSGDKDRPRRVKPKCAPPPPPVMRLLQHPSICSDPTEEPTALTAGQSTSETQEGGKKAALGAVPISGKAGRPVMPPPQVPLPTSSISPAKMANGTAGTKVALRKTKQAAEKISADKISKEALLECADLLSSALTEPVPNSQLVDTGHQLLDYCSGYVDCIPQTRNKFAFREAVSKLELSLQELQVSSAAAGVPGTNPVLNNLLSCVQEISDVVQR
Chain of Dual specificity mitogen-activated protein kinase kinase 6 (Homo sapiens) (P52564 whole entry): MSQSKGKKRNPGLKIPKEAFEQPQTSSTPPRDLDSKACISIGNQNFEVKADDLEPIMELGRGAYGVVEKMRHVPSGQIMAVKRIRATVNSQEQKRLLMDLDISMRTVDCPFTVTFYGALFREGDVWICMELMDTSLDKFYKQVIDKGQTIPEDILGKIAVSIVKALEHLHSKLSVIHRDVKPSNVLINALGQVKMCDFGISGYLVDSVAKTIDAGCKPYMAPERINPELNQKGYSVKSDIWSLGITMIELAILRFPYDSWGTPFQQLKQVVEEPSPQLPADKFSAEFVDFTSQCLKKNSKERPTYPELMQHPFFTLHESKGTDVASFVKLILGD

## COc1ccc2c(c1)O[C@H](c1ccc(OC)c(OC)c1)C[C@@H]2NC(=O)C1(c2ccc3c(c2)OC(F)(F)O3)CC1 [A-1596584]
[1]
  residual activity: 100%
[2]
  residual activity: 96%
[3]
  inhibition at 60 min, 10 µM: 6.4%
[4]
  residual activity: 100%
[5]
  % Inhibition of Control Specific Binding (Mean n=2): 11.3%
[6]
  residual activity: 100%
[7]
  residual activity: 100%
[8]
  residual activity: 85%
[9]
  residual activity: 100%
[10]
  % Inhibition of Control Specific Binding (Mean n=2): -14.6%
[11]
  residual activity: 90%
[12]
  residual activity: 100%
[13]
  residual activity: 100%
[14]
  residual activity: 100%
[15]
  residual activity: 92%
[16]
  residual activity: 95%
[17]
  residual activity: 100%
[18]
  residual activity: 87%
[19]
  % Inhibition of Control Specific Binding (Mean n=2): -49.6%
[20]
  residual activity: 87%
[21]
  residual activity: 100%
[22]
  % Inhibition of Control Specific Binding (Mean n=2): 7.8%
[23]
  residual activity: 100%
[24]
  residual activity: 100%
[25]
  residual activity: 94%
[26]
  residual activity: 100%
[27]
  residual activity: 87%
[28]
  inhibition: 19.6%
[29]
  residual activity: 93%
[30]
  residual activity: 100%
[31]
  residual activity: 84%
[32]
  residual activity: 100%
[33]
  residual activity: 100%
[34]
  residual activity: 100%
[35]
  residual activity: 100%
[36]
  residual activity: 100%
[37]
  residual activity: 100%

## COc1ccc2c(c1)O[C@@H](c1ccc(OC)c(OC)c1)C[C@H]2NC(=O)C1(c2ccc3c(c2)OC(F)(F)O3)CC1 [A-1596586]
[1]
  residual activity: 100%
[2]
  residual activity: 96%
[3]
  inhibition at 60 min, 10 µM: -1.1%
[4]
  residual activity: 100%
[5]
  % Inhibition of Control Specific Binding (Mean n=2): 9.8%
[6]
  residual activity: 89%
[7]
  residual activity: 84%
[8]
  residual activity: 61%
[9]
  residual activity: 100%
[10]
  % Inhibition of Control Specific Binding (Mean n=2): 8.5%
[11]
  residual activity: 91%
[12]
  residual activity: 100%
[13]
  residual activity: 100%
[14]
  residual activity: 71%
[15]
  residual activity: 90%
[16]
  residual activity: 95%
[17]
  residual activity: 100%
[18]
  residual activity: 94%
[19]
  % Inhibition of Control Specific Binding (Mean n=2): -12.3%
[20]
  residual activity: 95%
[21]
  residual activity: 90%
[22]
  % Inhibition of Control Specific Binding (Mean n=2): 11.2%
[23]
  residual activity: 98%
[24]
  residual activity: 95%
[25]
  residual activity: 100%
[26]
  residual activity: 77%
[27]
  residual activity: 78%
[28]
  inhibition: 37.5%
[29]
  residual activity: 100%
[30]
  residual activity: 100%
[31]
  residual activity: 100%
[32]
  residual activity: 80%
[33]
  residual activity: 82%
[34]
  residual activity: 99%
[35]
  residual activity: 100%
[36]
  residual activity: 100%
[37]
  residual activity: 100%
